Key:
[1] = molecular target: T1, Cysteinyl leukotriene receptor (Homo sapiens, UniProt Q9Y271+Q9NS75); experiment: Inhibition of LTC4 induced smooth muscle contraction of guinea pig ileum; format: functional, tissue-based, Cavia porcellus; details: target entry is the homologue from another species
T1 sequence (Q9Y271 whole entry): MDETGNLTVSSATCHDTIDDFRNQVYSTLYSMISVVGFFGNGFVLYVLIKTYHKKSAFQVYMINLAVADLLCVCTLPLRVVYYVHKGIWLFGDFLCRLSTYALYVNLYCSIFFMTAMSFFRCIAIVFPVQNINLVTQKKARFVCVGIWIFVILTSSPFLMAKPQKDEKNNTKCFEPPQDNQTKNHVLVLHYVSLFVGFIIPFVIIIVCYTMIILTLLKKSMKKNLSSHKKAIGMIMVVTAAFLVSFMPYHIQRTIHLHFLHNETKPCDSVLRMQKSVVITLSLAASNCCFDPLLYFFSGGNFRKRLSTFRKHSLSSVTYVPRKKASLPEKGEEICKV
T1 sequence (Q9NS75 whole entry): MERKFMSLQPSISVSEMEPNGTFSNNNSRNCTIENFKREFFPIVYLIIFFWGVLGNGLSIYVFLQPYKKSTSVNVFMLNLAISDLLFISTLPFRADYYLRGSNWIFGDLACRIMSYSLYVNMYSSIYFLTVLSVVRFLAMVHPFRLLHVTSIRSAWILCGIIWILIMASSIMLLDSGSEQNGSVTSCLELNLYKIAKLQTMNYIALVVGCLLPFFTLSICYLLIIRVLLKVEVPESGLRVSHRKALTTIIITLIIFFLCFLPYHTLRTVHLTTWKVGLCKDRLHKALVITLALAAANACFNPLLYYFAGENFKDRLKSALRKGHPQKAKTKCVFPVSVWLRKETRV

[2] = molecular target: Cysteinyl leukotriene receptor (Homo sapiens) (UniProt Q9Y271+Q9NS75); experiment: In vivo inhibition of LTD4-induced bronchoconstriction in anesthetized guinea pig.; format: functional, organism-based; details: Cavia porcellus; target entry is the homologue from another species
Cavia porcellus [3] = experiment: Inhibition of LTD4 (5 ng/site) induced vascular permeability in guinea pig skin at dose 10 mg/kg given perorally; format: functional; details: route oral
Cavia porcellus [4] = experiment: Inhibition of LTD4 (5 ng/site) induced vascular permeability in guinea pig skin at dose 0.3 mg/kg given perorally; format: functional; details: route oral

IC50 [1] [nM]	Structure (SMILES)	further results
13	CCCCCCOc1ccc(C(=O)Nc2cccc3c2OC(c2nnn[nH]2)CO3)cc1 (stereo unspecified)	–
350	CCCCCCCc1ccc(/C=C/C(=O)Nc2cccc3c2OC(c2nnn[nH]2)CO3)cc1 (stereo unspecified)	–
5.2	CCCCCC/C=C/COc1ccc(C(=O)Nc2cccc3c2OC(c2nnn[nH]2)CO3)cc1 (stereo unspecified)	ID50 [2]: 0.0041 mg/kg
500	CCCCCCCCCCc1ccc(C(=O)Nc2cccc3c2OC(c2nnn[nH]2)CO3)cc1 (stereo unspecified)	–
3200	CCCCCCCCCc1ccc(/C=C/C(=O)Nc2cccc3c2OC(c2nnn[nH]2)CO3)cc1 (stereo unspecified)	–
215	CCCCCCCCOc1ccc(/C=C/C(=O)Nc2cccc3c2OC(c2nnn[nH]2)CO3)cc1 (stereo unspecified)	–
88	CCCCCCCOc1ccc(/C=C/C(=O)Nc2cccc3c2OC(c2nnn[nH]2)CO3)cc1 (stereo unspecified)	–
0.96	O=C(Nc1cccc2c(=O)cc(-c3nn[nH]n3)oc12)c1ccc(OCCCc2ccccc2)cc1	–
1000	CCCCCc1ccc(/C=C/C(=O)Nc2cccc3ccc(-c4nn[nH]n4)nc23)cc1	–
0.86	CCCCCCOc1ccc(C(=O)Nc2cccc3c(=O)cc(-c4nn[nH]n4)oc23)cc1	–
1.1	C=CCCC/C=C/COc1ccc(C(=O)Nc2cccc3c2OC(c2nnn[nH]2)CO3)cc1 (stereo unspecified)	inhibition in vivo at 10 mg/kg (Cavia porcellus [3]): 2.9%
30	CCCCCc1ccc(/C=C/C(=O)Nc2cccc3c(=O)cc(-c4nn[nH]n4)oc23)cc1	ID50 [2]: 0.014 mg/kg
9400	CCCCCOc1ccccc1C(=O)Nc1cccc2c1OC(c1nnn[nH]1)CO2 (stereo unspecified)	–
140	CCCCCCc1ccc(/C=C/C(=O)Nc2cccc3c2OC(c2nnn[nH]2)CO3)cc1 (stereo unspecified)	–
5000	CCCCCOc1cccc(C(=O)Nc2cccc3c2OC(c2nnn[nH]2)CO3)c1 (stereo unspecified)	–
0.67	CCCCCC#CCOc1ccc(C(=O)Nc2cccc3c2OC(c2nnn[nH]2)CO3)cc1 (stereo unspecified)	ID50 [2]: 0.0064 mg/kg
150	CC/C=C/COc1ccc(C(=O)Nc2cccc3c2OC(c2nnn[nH]2)CO3)cc1 (stereo unspecified)	–
15	CCCCCCc1ccc(C(=O)Nc2cccc3c(=O)cc(-c4nn[nH]n4)oc23)cc1	–
14000	CCCCCc1ccc(/C=C/C(=O)Nc2ccccc2C(=O)O)cc1	ID50 [2]: 4.5 mg/kg
0.16	C=CCCC/C=C/COc1ccc(C(=O)Nc2cccc3c(=O)cc(-c4nn[nH]n4)oc23)cc1	inhibition in vivo at 0.3 mg/kg (Cavia porcellus [4]): < 44.6%; ID50 [2]: 0.0012 mg/kg
5.5	CCCCCCCCc1ccc(C(=O)Nc2cccc3c(=O)cc(-c4nn[nH]n4)oc23)cc1	–
3000	CCCCCc1ccc(/C=C/C(=O)Nc2ccccc2OCc2nn[nH]n2)cc1	ID50 [2]: 0.5 mg/kg
2200	CCCOc1ccc(C(=O)Nc2cccc3c2OC(c2nnn[nH]2)CO3)cc1 (stereo unspecified)	–
0.031	CCCC/C=C/COc1ccc(C(=O)Nc2cccc3c(=O)cc(-c4nn[nH]n4)oc23)cc1	ID50 [2]: 0.0011 mg/kg
120	CCCCCOc1ccc(/C=C/C(=O)Nc2cccc3c2OC(c2nnn[nH]2)CO3)cc1 (stereo unspecified)	–
7.4	CCCCCCCCCOc1ccc(C(=O)Nc2cccc3c(=O)cc(-c4nn[nH]n4)oc23)cc1	–

IC50 [1] [nM]	Structure (SMILES)	further results
1500	CCCCc1ccc(C(=O)Nc2cccc3c2OC(c2nnn[nH]2)CO3)cc1 (stereo unspecified)	–
20	CCCCCCCCCOc1ccc(C(=O)Nc2cccc3c2OC(c2nnn[nH]2)CO3)cc1 (stereo unspecified)	–
20	O=C(Nc1cccc2c1OC(c1nnn[nH]1)CO2)c1ccc(OCCCc2ccccc2)cc1 (stereo unspecified)	–
300	CCCCCCCCCCOc1ccc(C(=O)Nc2cccc3c2OC(c2nnn[nH]2)CO3)cc1 (stereo unspecified)	–
2300	CCCCCOc1ccccc1/C=C/C(=O)Nc1cccc2c1OC(c1nnn[nH]1)CO2 (stereo unspecified)	–
0.5	CCCCCCCOc1ccc(C(=O)Nc2cccc3c(=O)cc(-c4nn[nH]n4)oc23)cc1	–
370	CCCCCc1ccc(/C=C/C(=O)Nc2cccc3c2OC(c2nnn[nH]2)CO3)cc1 (stereo unspecified)	ID50 [2]: 0.33 mg/kg
3100	CCCCCc1ccc(/C=C/C(=O)Nc2cccc3cc(-c4nn[nH]n4)oc23)cc1	–
4.2	CCCCCCCc1ccc(C(=O)Nc2cccc3c(=O)cc(-c4nn[nH]n4)oc23)cc1	–
14	CCCCCCCCOc1ccc(C(=O)Nc2cccc3c2OC(c2nnn[nH]2)CO3)cc1 (stereo unspecified)	–
0.14	CCCCCC#CCOc1ccc(C(=O)Nc2cccc3c(=O)cc(-c4nn[nH]n4)oc23)cc1	ID50 [2]: 0.0011 mg/kg
580	CCCCCCCCc1ccc(/C=C/C(=O)Nc2cccc3c2OC(c2nnn[nH]2)CO3)cc1 (stereo unspecified)	–
5.5	CCCCCCCCOc1ccc(C(=O)Nc2cccc3c(=O)cc(-c4nn[nH]n4)oc23)cc1	–
100	CCCCCCCc1ccc(/C=C/C(=O)Nc2cccc3c(=O)cc(-c4nn[nH]n4)oc23)cc1	–
490	CCCc1ccc(/C=C/C(=O)Nc2cccc3c2OC(c2nnn[nH]2)CO3)cc1 (stereo unspecified)	–
11	O=C(Nc1cccc2c1OC(c1nnn[nH]1)CO2)c1ccc(OCCCCCc2ccccc2)cc1 (stereo unspecified)	–
34	CCCCc1ccc(/C=C/C(=O)Nc2cccc3c(=O)cc(-c4nn[nH]n4)oc23)cc1	–
240	CCCCCc1ccc(/C=C/C(=O)Nc2cccc3c(=O)cc(C(=O)O)oc23)cc1	ID50 [2]: 0.32 mg/kg
53	CCCCCOc1ccc(C(=O)Nc2cccc3c(=O)cc(-c4nn[nH]n4)oc23)cc1	–
150	CCCCCOc1cccc(/C=C/C(=O)Nc2cccc3c2OC(c2nnn[nH]2)CO3)c1 (stereo unspecified)	–
160	CCCCCCCCCc1ccc(C(=O)Nc2cccc3c2OC(c2nnn[nH]2)CO3)cc1 (stereo unspecified)	–
2600	CCCCCc1ccc(C(=O)Nc2cccc3c2OC(c2nnn[nH]2)CO3)cc1 (stereo unspecified)	–
6900	CCCCCc1ccc(/C=C/C(=O)Nc2cccc3c2OC(c2nnn[nH]2)C3)cc1 (stereo unspecified)	–
300	CCCCCc1ccc(/C=C/C(=O)Nc2cccc3ccc(-c4nn[nH]n4)cc23)cc1	–
140	CCCCCCCOc1ccc(/C=C/C(=O)Nc2cccc3c(=O)cc(-c4nn[nH]n4)oc23)cc1	–
1100	CCCCCCCCCCc1ccc(/C=C/C(=O)Nc2cccc3c2OC(c2nnn[nH]2)CO3)cc1 (stereo unspecified)	–

IC50 [1] [nM]	Structure (SMILES)	further results
20000	CCCCCc1ccc(/C=C/C(=O)Nc2ccccc2CC(=O)O)cc1	–
5	CCCCOc1ccc(C(=O)Nc2cccc3c(=O)cc(-c4nn[nH]n4)oc23)cc1	–
210	CCCCCCc1ccc(C(=O)Nc2cccc3c2OC(c2nnn[nH]2)CO3)cc1 (stereo unspecified)	–
70	CCCCCCCc1ccc(C(=O)Nc2cccc3c2OC(c2nnn[nH]2)CO3)cc1 (stereo unspecified)	–
40000	CCCCCc1ccccc1C(=O)Nc1cccc2c1OC(c1nnn[nH]1)CO2 (stereo unspecified)	–
120	CCCCOc1ccc(/C=C/C(=O)Nc2cccc3c2OC(c2nnn[nH]2)CO3)cc1 (stereo unspecified)	–
180	CCCCCc1ccc(C(=O)Nc2cccc3c(=O)cc(-c4nn[nH]n4)oc23)cc1	–
7	CCCCCCCCCc1ccc(C(=O)Nc2cccc3c(=O)cc(-c4nn[nH]n4)oc23)cc1	–
21	CCCCCCOc1ccc(/C=C/C(=O)Nc2cccc3c2OC(c2nnn[nH]2)CO3)cc1 (stereo unspecified)	–
830	CCCCCc1ccc(/C=C/C(=O)Nc2cccc3c2OC(C(=O)O)CO3)cc1 (stereo unspecified)	ID50 [2]: 0.22 mg/kg
1.5	CCC/C=C/COc1ccc(C(=O)Nc2cccc3c(=O)cc(-c4nn[nH]n4)oc23)cc1	–
0.47	CCCC/C=C/COc1ccc(C(=O)Nc2cccc3c2OC(c2nnn[nH]2)CO3)cc1 (stereo unspecified)	ID50 [2]: 0.0055 mg/kg
4.3	CCC/C=C/COc1ccc(C(=O)Nc2cccc3c2OC(c2nnn[nH]2)CO3)cc1 (stereo unspecified)	ID50 [2]: 0.0135 mg/kg
2150	CCCCCc1ccccc1/C=C/C(=O)Nc1cccc2c1OC(c1nnn[nH]1)CO2 (stereo unspecified)	–
1.3	C=CCCCCCCOc1ccc(C(=O)Nc2cccc3c2OC(c2nnn[nH]2)CO3)cc1 (stereo unspecified)	inhibition in vivo at 10 mg/kg (Cavia porcellus [3]): < 75.2%; ID50 [2]: 0.0017 mg/kg
9	CCCCCCCOc1ccc(C(=O)Nc2cccc3c2OC(c2nnn[nH]2)CO3)cc1 (stereo unspecified)	inhibition in vivo at 10 mg/kg (Cavia porcellus [3]): < 46.7%
220	CCCCOc1ccc(C(=O)Nc2cccc3c2OC(c2nnn[nH]2)CO3)cc1 (stereo unspecified)	–
100	CCCCCCCCc1ccc(C(=O)Nc2cccc3c2OC(c2nnn[nH]2)CO3)cc1 (stereo unspecified)	–
62	O=C(Nc1cccc2c1OC(c1nnn[nH]1)CO2)c1ccc(OCCc2ccccc2)cc1 (stereo unspecified)	–
18	CCCCCCOc1ccc(/C=C/C(=O)Nc2cccc3c(=O)cc(-c4nn[nH]n4)oc23)cc1	–
660	CCCOc1ccc(/C=C/C(=O)Nc2cccc3c2OC(c2nnn[nH]2)CO3)cc1 (stereo unspecified)	–
9000	CCCCCc1ccc(/C=C/C(=O)Nc2ccccc2OCC(=O)O)cc1	ID50 [2]: 4.2 mg/kg
220	CCCCc1ccc(/C=C/C(=O)Nc2cccc3c2OC(c2nnn[nH]2)CO3)cc1 (stereo unspecified)	–
32	CCCCCCc1ccc(/C=C/C(=O)Nc2cccc3c(=O)cc(-c4nn[nH]n4)oc23)cc1	–
100	CCCCCOc1ccc(C(=O)Nc2cccc3c2OC(c2nnn[nH]2)CO3)cc1 (stereo unspecified)	–
